ChEMBL document CHEMBL1201862, “PubChem BioAssay data set” (2004)
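Where inhibition never reached the appropriate level, the endpoint shown equals the highest concentration tested. Otherwise, values were interpolated linearly from a five-concentration, 48-hour dose response in 96-well plates. GI50 = concentration required for 50% inhibition of growth.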 Activity calls are given as the source filed them. No stated cut-off is given here; in the data, active = GI50 up to about 1.1 µM and inactive = higher.

What was measured:
Assay in all cases: inhibition of tumour cell growth, NCI panel, 48 h
[1] = system: NCI-H522
[2] = system: SF-295
[3] = system: RPMI-8226
[4] = system: HCC 2998
[5] = system: UO-31
[6] = system: Malme-3M
[7] = system: HL-60
[8] = system: SF-539
[9] = system: SN12C
[10] = system: OVCAR-4
[11] = system: KM12
[12] = system: SNB-75
[13] = system: SK-MEL-28
[14] = system: EKVX
[15] = system: NCI-H23
[16] = system: OVCAR-3
[17] = system: SK-OV-3
[18] = system: SF-268
[19] = system: IGROV-1
[20] = system: K562

Measured: GI50

Brc1cc(CCOC2CCCCO2)c(-c2sccc2CCOC2CCCCO2)s1 (stereo not given)
inactive: [1] 14.4 µM | [2] 18.7 µM | [3] 23.9 µM | [4] 31.9 µM | [5] 14 µM | [6] 24.9 µM | [7] 17.8 µM | [8] 55.5 µM | [9] > 100 µM | [10] 48 µM | [11] 27 µM | [12] 43.5 µM | [13] > 95.1 µM | [14] 47.6 µM | [15] 34.7 µM | [16] 71.4 µM | [17] > 69.2 µM | [18] 53.6 µM | [19] 53.2 µM | [20] 13.8 µM
